For data set [1] the following is noted: man, phase I study, cited from earlier work.
Data set [2] has as its system caspase-1 and caspase-3 activity in ACHN and A498 cells. The data set can be described thus: Caspase assay. The note with it: 10 μM, 48 h. Type of data set: cell-based, human.
For data set [3], the system named is ERK phosphorylation in ACHN and A498 cells. The data set can be described thus: Immunoblot of ERK phosphorylation after PDGF stimulation. As to conditions: two RCC cell lines (ACHN, A498), 10 μM, 1 h, then PDGF 10 ng/ml 15 min. Type of data set: cell-based, human.
The next data set can be described thus: in vivo. The note with it: male, Swiss-Webster, mouse, po, 5 mg/kg.
The test system of data set [4] is ACHN and A498 human RCC cells. Briefly: MTT assay of cell growth. Type of data set: cell-based. The note with it: 10 μM, 48 h.
For data set [5] the following is noted: mice, sorafenib tosylate 5 mg/kg oral.
For data set [6], the target named is T1, human sEH (Homo sapiens, UniProt P34913).
T1 sequence (P34913 1-555): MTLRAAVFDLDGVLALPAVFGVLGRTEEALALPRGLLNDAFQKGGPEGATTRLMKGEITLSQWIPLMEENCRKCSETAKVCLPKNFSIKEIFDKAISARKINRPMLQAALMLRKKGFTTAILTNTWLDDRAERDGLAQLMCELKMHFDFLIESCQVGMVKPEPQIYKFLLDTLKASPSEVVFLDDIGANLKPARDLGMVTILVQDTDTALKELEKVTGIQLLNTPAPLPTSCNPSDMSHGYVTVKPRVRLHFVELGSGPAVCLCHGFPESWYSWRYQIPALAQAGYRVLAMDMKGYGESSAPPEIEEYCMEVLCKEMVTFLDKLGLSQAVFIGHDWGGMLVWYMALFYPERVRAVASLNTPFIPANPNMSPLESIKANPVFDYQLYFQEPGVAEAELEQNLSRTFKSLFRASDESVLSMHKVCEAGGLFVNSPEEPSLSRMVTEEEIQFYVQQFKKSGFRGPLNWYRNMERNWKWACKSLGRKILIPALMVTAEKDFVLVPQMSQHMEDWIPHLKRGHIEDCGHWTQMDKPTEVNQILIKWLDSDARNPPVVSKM
The data set can be described thus: biochemical. Format: biochemical.

Data set [7] concerns the target T1, human sEH. Format: biochemical. The note with it: read-out: Inhibition of the Human sEH KI; pH 7.4.
A further data set addresses T2, murine sEH (Mus musculus, UniProt P34914).
T2 sequence (P34914 1-554): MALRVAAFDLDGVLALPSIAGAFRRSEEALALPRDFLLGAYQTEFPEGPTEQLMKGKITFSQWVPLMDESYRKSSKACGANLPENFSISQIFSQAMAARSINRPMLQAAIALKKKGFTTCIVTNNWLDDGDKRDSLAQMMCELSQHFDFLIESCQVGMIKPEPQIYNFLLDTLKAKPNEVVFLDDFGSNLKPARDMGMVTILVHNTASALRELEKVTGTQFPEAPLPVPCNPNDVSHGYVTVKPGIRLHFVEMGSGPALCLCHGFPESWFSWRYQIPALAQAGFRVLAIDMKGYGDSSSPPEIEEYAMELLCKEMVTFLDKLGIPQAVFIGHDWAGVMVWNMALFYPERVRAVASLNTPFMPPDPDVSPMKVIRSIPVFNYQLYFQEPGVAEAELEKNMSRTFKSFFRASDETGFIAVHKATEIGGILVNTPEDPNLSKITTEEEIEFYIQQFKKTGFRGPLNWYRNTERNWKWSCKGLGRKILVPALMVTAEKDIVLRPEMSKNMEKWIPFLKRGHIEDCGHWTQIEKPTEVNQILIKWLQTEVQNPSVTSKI
Briefly: Fluorescent sEH inhibition assay.

Like-named read-outs stand apart in the source and are kept apart here.

As usually defined, the Cmax is the maximum level reached in the sampled fluid or tissue. The AUC(0-t) is the area under the concentration-time curve up to a stated or last time point. A higher AUC(0-t) goes with more exposure. One may read the half-life as the time in which the quantity being followed falls by half. Read a high half-life as slow decline. As usually defined, the IC50 is the midpoint of a concentration-inhibition curve. Broadly, the Ki is a dissociation constant, usually derived from enzyme kinetics or from competition with a known ligand.

Consider `CNC(=O)c1cc(Oc2ccc(NC(=O)Nc3ccc(Cl)c(C(F)(F)F)c3)cc2)ccn1` [Sorafenib], for which the Cmax in data set [1] (similar doses) was greater than 1500 nM. Moreover, in data set [1], the AUC0-12 entry was “more than 13000 nM h”, the Elimination half life entry was “more than 20 hours” and the Tmax result is recorded as “more than 2 h”. In addition, the “Apoptosis: caspase-1 and caspase-3 activity” value in data set [2] is “activation of caspase-1 and caspase-3 activity”. The ERK phosphorylation result in [3] is on record as “attenuate ERK phosphorylation”. In the data set “in vivo”, this compound had an AUC(0-t) of 0.63 µM·h, a Cmax of roughly 120 nM and a half-life of 156 min. In addition, the “Decrease of cell growth as compared to serum-stimulated cells” value in [4] is reported as 65-70%. Also, in data set [5], the “Blood level after 24 h” value is on record as “no sorafenib could be detected”.
`CS(=O)(=O)N1CCC(NC(=O)Nc2ccc(OC(F)(F)F)cc2)CC1` [TUPS]: the IC50 at human sEH [6] (read-out: Inhibition of the Human sEH IC50, pH 7) came to 0.003 ± 0.001 µM. At human sEH [7], the Ki is 14 ± 4 nM.
`Cc1nc(Nc2ncc(C(=O)Nc3c(C)cccc3Cl)s2)cc(N2CCN(CCO)CC2)n1` [Dasatinib]: on murine sEH, the IC50 worked out at 27 µM.
Compound `CCN(CC)CCNC(=O)c1c(C)[nH]c(/C=C2\C(=O)Nc3ccc(F)cc32)c1C` [Sunitinib] showed an IC50 against human sEH [6] of 55 µM. Moreover, at human sEH [6] (fluorescent assay), the “Inhibition of the human sEH (in words)” value is “not potent inhibitors of the human sEH”.
Take `COc1cccc(-c2cc(=O)c3ccccc3o2)c1N` [PD98059]: the ERK phosphorylation result in data set [3] is on record as “attenuate ERK phosphorylation”.

The values are drawn from article PMC2728155 (Molecular cancer therapeutics, 2009).
